Results: PubChem BioAssay (NCI)
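Following 48 hours of exposure in 96-well plates, responses at five concentrations were used to interpolate endpoints linearly. At the GI50, growth is halved. TGI: total growth inhibition.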

Assays:
Test in all cases: NCI-60 cell line screen, 48 h
[1] = test system: 786-0 renal
[2] = test system: M14 melanoma
[3] = test system: HCC-2998 colon
[4] = test system: SR leukemia
[5] = test system: RPMI-8226 leukemia
[6] = test system: A549 NSCLC
[7] = test system: UACC-257 melanoma
[8] = test system: TK-10 renal
[9] = test system: MDA-MB-231 breast
[10] = test system: BT-549 breast

| SMILES | TGI [1] | TGI [2] | TGI [3] | TGI [4] | TGI [5] | TGI [6] | TGI [7] | TGI [8] | GI50 [1] | GI50 [9] | TGI [9] | GI50 [2] | GI50 [3] | GI50 [6] | GI50 [10] | TGI [10] | GI50 [7] | GI50 [8] | GI50 [5] |
| --- | --- | --- | --- | --- | --- | --- | --- | --- | --- | --- | --- | --- | --- | --- | --- | --- | --- | --- | --- |
| NCCSSCc1ccccc1CSSCCN | > 100 µM | > 100 µM | > 100 µM | > 100 µM | > 100 µM | > 100 µM | > 100 µM | > 100 µM | – | – | – | – | – | – | – | – | – | – | – |
| O=C(NCCCCN1CCOCC1)c1cc2ccccc2o1 | > 100 µM | > 100 µM | > 100 µM | – | – | > 100 µM | > 100 µM | > 100 µM | > 100 µM | > 100 µM | > 100 µM | > 100 µM | > 100 µM | > 100 µM | > 100 µM | > 100 µM | > 100 µM | > 100 µM | – |
| COc1cc(/C=C2\CC3C4CC=C5C[C@@H](OC(C)=O)CC[C@]5(C)C4CC[C@]3(C)C2=O)ccc1OCCN1CCCCC1 (stereo partly drawn) | 3.1 µM | 3.79 µM | 6.59 µM | – | – | > 100 µM | > 100 µM | 12.3 µM | 1.66 µM | 3.31 µM | 7.89 µM | 2.09 µM | 2.7 µM | 3.42 µM | 15.1 µM | 31.7 µM | 3.85 µM | 3.4 µM | – |
| CC(=O)O[C@@H]1C2CCC3C(CC[C@@]4(C)C3CC[C@@H]4C(C)N(C)C)[C@@]2(C)CC[C@@H]1NC(=O)C=C(C)C (stereo partly drawn) | 6.73 µM | 3.63 µM | 3.66 µM | – | 5.53 µM | 6.27 µM | 4.98 µM | 17.4 µM | 2.42 µM | 2.24 µM | 5.19 µM | 1.85 µM | 1.73 µM | 2.58 µM | 6.31 µM | 22.5 µM | 2.33 µM | 5.21 µM | 1.96 µM |
| NC(=O)NNC(=O)CCn1[nH]c(=O)c(Cl)c(Cl)c1=O | > 100 µM | > 100 µM | > 100 µM | – | – | > 100 µM | > 100 µM | > 100 µM | – | – | – | – | – | – | – | – | – | – | – |
| O=C(CN(/C=C/C(=O)C(F)(F)F)c1ccc(Cl)cc1)c1ccc(Cl)cc1 | 65.1 µM | – | 35 µM | – | 37.7 µM | 32.1 µM | 20.8 µM | 19.3 µM | 18.6 µM | 11.5 µM | 23.7 µM | – | 15.7 µM | 13.2 µM | 17.6 µM | 43.9 µM | 7.45 µM | 4.78 µM | 11.5 µM |
| O=C(/C=C\c1ccccc1O)c1ccc(O)cc1O | > 100 µM | > 100 µM | > 100 µM | > 100 µM | > 100 µM | > 100 µM | > 100 µM | > 100 µM | – | – | – | – | – | – | – | – | – | – | – |
| Cc1c(C)n(CCCN2CCN(C)CC2)c2ccc(Oc3cccc(C(=O)N4CCN(CCc5ccc(F)cc5)CC4)c3)cc12 | 2.95 µM | – | 3.37 µM | – | – | 3.62 µM | 3.72 µM | 3.23 µM | 1.53 µM | 1.82 µM | 3.43 µM | – | 1.81 µM | 1.81 µM | 1.58 µM | 3.19 µM | 1.88 µM | 1.62 µM | – |
| COc1cc(/C=C/c2cc(/C=C/c3ccc(O)c(OC)c3)n(C(=O)c3ccc(Cl)cc3)n2)ccc1O | 16.2 µM | 15.2 µM | 12.8 µM | – | 6.33 µM | 12.8 µM | 13.2 µM | 14.7 µM | 2.55 µM | 2.84 µM | 19.6 µM | 1.5 µM | 3.94 µM | 3.3 µM | 1.83 µM | 8.32 µM | 3.79 µM | 4.2 µM | 1.83 µM |
| Cc1ccc(C)c(N2C(=O)C(=O)C(c3nc4ccccc4s3)/C(=N/N)C2=O)c1 (stereo not drawn) | > 100 µM | > 100 µM | > 100 µM | > 100 µM | > 100 µM | > 100 µM | > 74.5 µM | > 100 µM | – | – | – | – | – | – | – | – | – | – | – |
| C=CSCCC(N)C(=O)O (stereo not drawn) | > 100 µM | > 100 µM | > 100 µM | > 100 µM | – | > 100 µM | > 100 µM | > 100 µM | – | – | – | – | – | – | – | – | – | – | – |
| COC1CCC(OS(C)(=O)=O)C(CO)O1 (stereo not drawn) | > 100 µM | > 100 µM | > 100 µM | > 100 µM | – | > 100 µM | > 100 µM | > 100 µM | – | – | – | – | – | – | – | – | – | – | – |
| C=CCNC(=O)NCCCCC(NC(C)=O)C(=O)NCc1ccccc1 (stereo not drawn) | > 100 µM | > 100 µM | > 100 µM | – | > 100 µM | > 100 µM | > 100 µM | > 100 µM | – | – | – | – | – | – | – | – | – | – | – |
| COc1ccc(C(=O)C(CN(C)C)CN(C)C)cc1 | 16.1 µM | 13.5 µM | 30 µM | – | 6.67 µM | 43.4 µM | 8.48 µM | 6.98 µM | 3.87 µM | 14.6 µM | 36.6 µM | 3.53 µM | 15.9 µM | 19.1 µM | 15.3 µM | 28.8 µM | 2.14 µM | 2.32 µM | 2.45 µM |
| CC1(C)OC2C(CCP(=O)(O)O)OC(c3nc(C(N)=O)cs3)C2O1 (stereo not drawn) | > 100 µM | > 100 µM | > 100 µM | – | > 100 µM | > 100 µM | > 100 µM | > 100 µM | – | – | – | – | – | – | – | – | – | – | – |
| C=C(CCCCC)CN1CCCC1C(C)=O (stereo not drawn) | > 100 µM | > 100 µM | > 100 µM | 40.1 µM | 40 µM | > 100 µM | > 73.3 µM | > 100 µM | – | – | – | – | – | – | – | – | – | – | – |
| C=C(C)[C@H]1CC[C@@]2(C)C(C1)[C@H](C)CC[C@@H]2O (stereo partly drawn) | > 100 µM | > 100 µM | > 100 µM | > 100 µM | > 100 µM | > 100 µM | > 100 µM | > 100 µM | – | – | – | – | – | – | – | – | – | – | – |
| COC(=O)c1cc2c(=O)n(C)c3ccccc3n2c1C(=O)OC | 50.3 µM | > 100 µM | > 100 µM | – | > 100 µM | > 100 µM | > 100 µM | 77.4 µM | – | – | – | – | – | – | – | – | – | – | – |
| CC(=O)Nc1ccc(/C=C/C(=O)c2sc(-c3cccnc3)nc2C)cc1 | > 100 µM | – | > 100 µM | – | > 100 µM | > 100 µM | > 100 µM | > 100 µM | – | – | – | – | – | – | – | – | – | – | – |
